Assay results as given in patent US20210236507A1, “METHODS AND PHARMACEUTICAL COMPOSITIONS FOR PREVENTING RELAPSE IN A PERSON WITH AN ADDICTION USING BETA ADRENERGIC RECEPTOR ANTAGONIST AND MUSCARINIC RECEPTOR ANTAGONIST COMBINATIONS” (MAGNOLIA CNS, LLC, priority 2020, published 2021).
Entries after “also recorded” stand apart in the source; their conditions may differ. Where a name gives a salt, the structure may show the parent alone.

Assays:
[1] = system: humans; assay: Taste and mouth paresthesia of dose forms noted in humans during development; format: in vivo, human; conditions: sublingual/liquid/solid dose forms
Description: The pharmaceutical compositions of the present invention, when intended for sublingual, buccal, and/or oral delivery, may benefit from taste-masking with natural and/or artificial flavors and/or sweeteners (e.g., mannitol, sucralose, monosaccharides, and disaccharides). Mouth paresthesia (numbness) can occur with propranolol HCl as a perceived adverse effect.
Alternative beta blockers may be chosen that lack these undesirable properties, such as atenolol.
Tablets are formed by compression of the powder using a mechanical tablet press. For instance tablets without coatings are prepared with composition #11 at about 70 mg each, for use as sublingual or oral dose forms. At this size of tablet an adult dose would deliver 20 mg propranolol HC and 0.5 mg scopolamine HBr. Alternatively, tablets may be produced using a triturate tablet mold (e.g., from the vendor PCCA), wherein the triturated powder is moistened with 95% ethanol and then the wells are filled with the moistened composition, extruded from the wells, and dried. The intra-oral mucosal (e.g., sublingual) tablets dissolve rapidly under the tongue, for instance in less than one minute (e.g., solid dose forms #13 and 14). […] Sublingual (or buccal) tablets may be preferred for rapid disintegration, dissolution, absorption and increased bioavailability via the mucosal route. A sublingual tablet of #23 weighing ca. 82 mg delivers a dose of ca. 25 mg atenolol and ca. 0.25 mg of scopolamine HBr. Tablets may also be ingested orally, although it is rational to presume that absorption will be somewhat delayed and bioavailability will be somewhat reduced with many APIs, relative to the mucosal route.

[2] = target: muscarinic acetylcholine receptors (all five human receptor subtypes); conditions: cited from earlier work

In the case of `CC(C)NCC(O)COc1cccc2ccccc12` (stereo not drawn) [Propranolol HCl], the mouth/tongue paresthesia ([1]; HCl) is reported as “delayed paresthesia of the tongue”, the taste ([1]; HCl) is reported as ““acidic” and “medicine” taste” and the mouth/tongue paresthesia ([1]; listed as propranolol HCl, HCl) is reported as “produces mouth paresthesia”. For the same compound, the taste ([1]; listed as propranolol HCl, HCl) was ““acidic” and “medicine” taste”, the mouth/tongue paresthesia ([1]; listed as propranolol, HCl) was “Paresthesia” and the taste ([1]; listed as propranolol, HCl) was “undesirable taste”.
In the case of `CN1[C@@H]2C[C@@H](OC(=O)[C@H](CO)c3ccccc3)C[C@H]1[C@@H]1O[C@@H]12` [Scopolamine], the Ki [2] is given as 0.34 to 53 nM.
In the case of `CC(C)NCC(O)COc1ccc(CC(N)=O)cc1` (stereo not drawn) [atenolol], the mouth/tongue paresthesia [1] is reported as “neither property was observed; also recorded: lacked these undesirable characteristics” and the taste [1] is reported as “neither property was observed; also recorded: lacked these undesirable characteristics”.
